Source: PubChem BioAssay AID256 (DTP/NCI, 2004)
Inconclusive results and toxic doses are left out. The calls were made as follows: active = survival T/C of 150% or more; inactive = T/C below 125% in these data.

Tested on: CD2F1 mice, L1210 leukemia ip, survival T/C
Assay: NCI In Vivo Anticancer Drug Screen. Data for tumor model L1210 Leukemia (intraperitoneal) in CD2F1 (CDF1) mice
Settings: higher = longer survival
Procedure, shortened: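 Tumor-bearing mice (transplanted tumor) were split into treated and vehicle control groups, and the measured endpoint of each treated group was divided by that of its vehicle controls.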

[1] = endpoint: mean survival time, dose: 100.0 mg/kg/injection, schedule: Q01DX009 (ip), vehicle: saline with Tween-80
[2] = endpoint: mean survival time, dose: 100.0 mg/kg/injection, schedule: Q04DX003 (ip), vehicle: saline with Tween-80
[3] = endpoint: mean survival time, dose: 200.0 mg/kg/injection, schedule: Q01DX009 (ip), vehicle: saline with Tween-80
[4] = endpoint: mean survival time, dose: 200.0 mg/kg/injection, schedule: Q04DX003 (ip), vehicle: saline with Tween-80
[5] = endpoint: mean survival time, dose: 400.0 mg/kg/injection, schedule: Q01DX009 (ip), vehicle: saline with Tween-80
[6] = endpoint: mean survival time, dose: 400.0 mg/kg/injection, schedule: Q04DX003 (ip), vehicle: saline with Tween-80
[7] = endpoint: mean survival time, dose: 100.0 mg/kg/injection, schedule: Q01DX001 (ip), vehicle: saline with Tween-80
[8] = endpoint: mean survival time, dose: 200.0 mg/kg/injection, schedule: Q01DX001 (ip), vehicle: saline with Tween-80
[9] = endpoint: mean survival time, dose: 400.0 mg/kg/injection, schedule: Q01DX001 (ip), vehicle: saline with Tween-80
[10] = endpoint: mean survival time, dose: 12.5 mg/kg/injection, schedule: Q01DX009 (ip), vehicle: saline with Tween-80
[11] = endpoint: mean survival time, dose: 25.0 mg/kg/injection, schedule: Q01DX009 (ip), vehicle: saline with Tween-80
[12] = endpoint: mean survival time, dose: 50.0 mg/kg/injection, schedule: Q01DX009 (ip), vehicle: saline with Tween-80
[13] = endpoint: mean survival time, dose: 12.5 mg/kg/injection, schedule: Q04DX003 (ip), vehicle: saline with Tween-80
[14] = endpoint: mean survival time, dose: 25.0 mg/kg/injection, schedule: Q04DX003 (ip), vehicle: saline with Tween-80
[15] = endpoint: mean survival time, dose: 50.0 mg/kg/injection, schedule: Q04DX003 (ip), vehicle: saline with Tween-80
[16] = endpoint: mean survival time, dose: 75.0 mg/kg/injection, schedule: Q01DX001 (ip), vehicle: saline
[17] = endpoint: mean survival time, dose: 150.0 mg/kg/injection, schedule: Q01DX001 (ip), vehicle: saline
[18] = endpoint: mean survival time, dose: 100.0 mg/kg/injection, schedule: Q04DX002 (ip), vehicle: saline with Tween-80
[19] = endpoint: mean survival time, dose: 400.0 mg/kg/injection, schedule: Q04DX002 (ip), vehicle: saline with Tween-80

Measured: T/C

O=Cc1[nH]c(=S)[nH]c(=O)c1CCCc1ccccc1
inactive: endpoint: mean survival time, dose: 25.0 mg/kg/injection, schedule: Q04DX002 (ip), vehicle: Klucel (hydroxypropylcellulose) (HPC) 96 % of control | endpoint: mean survival time, dose: 50.0 mg/kg/injection, schedule: Q04DX002 (ip), vehicle: Klucel (hydroxypropylcellulose) (HPC) 104 % of control | endpoint: mean survival time, dose: 100.0 mg/kg/injection, schedule: Q04DX002 (ip), vehicle: Klucel (hydroxypropylcellulose) (HPC) 93 % of control | endpoint: mean survival time, dose: 200.0 mg/kg/injection, schedule: Q04DX002 (ip), vehicle: Klucel (hydroxypropylcellulose) (HPC) 94 % of control | endpoint: mean survival time, dose: 400.0 mg/kg/injection, schedule: Q04DX002 (ip), vehicle: Klucel (hydroxypropylcellulose) (HPC) 90 % of control

c1cnc(NCCSSCCNc2ncccn2)nc1
inactive: [1] 91 % of control | [2] 97 % of control | [3] 89 % of control | [4] 97 % of control | [5] 91 % of control | [6] 96 % of control

CC(C)c1ccc2ccccc2c1
inactive: [2] 91 % of control | [4] 87 % of control | [6] 86 % of control

O=C(O)c1ccccc1C(=O)CC(O)(C(F)(F)F)C(F)(F)F
inactive: [2] 101 % of control | [4] 97 % of control | [6] 102 % of control

CCCCNC(C)(C)C(SSSC(c1ccc(C(F)(F)F)cc1)C(C)(C)NCCCC)c1ccc(C(F)(F)F)cc1 (configuration not stated)
inactive: endpoint: mean survival time, dose: 100.0 mg/kg/injection, schedule: Q04DX003 (ip), vehicle: saline 92 % of control | endpoint: mean survival time, dose: 200.0 mg/kg/injection, schedule: Q04DX003 (ip), vehicle: saline 94 % of control | endpoint: mean survival time, dose: 400.0 mg/kg/injection, schedule: Q04DX003 (ip), vehicle: saline 100 % of control

COC1=CCC23C(=O)C=CC(=O)C2(C1)C(=O)c1ccccc1C3=O (configuration not stated)
inactive: endpoint: median survival time, dose: 3.12 mg/kg/injection, schedule: Q01DX009 (ip), vehicle: saline with Tween-80 102 % of control | endpoint: median survival time, dose: 6.25 mg/kg/injection, schedule: Q01DX009 (ip), vehicle: saline with Tween-80 105 % of control | endpoint: median survival time, dose: 12.5 mg/kg/injection, schedule: Q01DX009 (ip), vehicle: saline with Tween-80 112 % of control | endpoint: median survival time, dose: 25.0 mg/kg/injection, schedule: Q01DX009 (ip), vehicle: saline with Tween-80 104 % of control

CCN(CC)CCNc1cc(OC)cc2cccnc12
inactive: endpoint: mean survival time, dose: 6.25 mg/kg/injection, schedule: Q04DX002 (ip), vehicle: saline 98 % of control | endpoint: mean survival time, dose: 12.5 mg/kg/injection, schedule: Q04DX002 (ip), vehicle: saline 98 % of control | endpoint: mean survival time, dose: 25.0 mg/kg/injection, schedule: Q04DX002 (ip), vehicle: saline 95 % of control

O=C(CCCCCCCCC(=O)N/N=C/c1ccc(Cl)c(Cl)c1)N/N=C/c1ccc(Cl)c(Cl)c1
inactive: [7] 95 % of control | [8] 95 % of control | [9] 94 % of control

C=CCNC(=S)NCCCCCCCCCCCCCCCCCC
inactive: [10] 98 % of control | [11] 98 % of control | [12] 104 % of control

CC(=O)Nc1ccc(Cc2[nH]c(=O)[nH]c(=O)c2Br)cc1[N+](=O)[O-]
inactive: [7] 95 % of control | [8] 91 % of control | [9] 89 % of control

CC(=O)c1cc(-c2ccc(Cl)cc2)nc2c(Cl)cc(Cl)cc12
inactive: endpoint: mean survival time, dose: 100.0 mg/kg/injection, schedule: Q01DX001 (ip), vehicle: saline 89 % of control | endpoint: mean survival time, dose: 200.0 mg/kg/injection, schedule: Q01DX001 (ip), vehicle: saline 87 % of control | endpoint: mean survival time, dose: 400.0 mg/kg/injection, schedule: Q01DX001 (ip), vehicle: saline 91 % of control

CSCCC(NC(=O)c1ccccc1)C(=O)O (configuration not stated)
inactive: [1] 91 % of control | [3] 87 % of control | [5] 90 % of control

CC1(C)OC2COC3(COC(C)(C)O3)C(OS(C)(=O)=O)C2O1 (configuration not stated)
inactive: [1] 102 % of control | [3] 93 % of control | [5] 95 % of control

NC(=O)C(Cc1ccccc1)NC(=O)c1ccccc1 (configuration not stated)
inactive: [1] 91 % of control

N#CCC(=O)N/N=C/c1ccc2c(c1)CCC2
inactive: [10] 97 % of control | [13] 100 % of control | [11] 90 % of control | [14] 97 % of control | [12] 90 % of control | [15] 88 % of control

OCCN1CCCCCCC1
inactive: [16] 95 % of control | [17] 102 % of control

Clc1c(CI)ccc(CI)c1Cl
inactive: [14] 95 % of control | [15] 97 % of control | [2] 102 % of control

O=C(Cc1cccc2ccccc12)N/N=C/c1ccc2c(c1)CCC2
inactive: [2] 89 % of control | [4] 95 % of control | [6] 95 % of control

Nc1nc(N)c2c(n1)=NC(c1cccc3ccccc13)N=2 (configuration not stated)
inactive: endpoint: mean survival time, dose: 6.25 mg/kg/injection, schedule: Q01DX005 (ip), vehicle: water 92 % of control | endpoint: mean survival time, dose: 12.5 mg/kg/injection, schedule: Q01DX005 (ip), vehicle: water 89 % of control | endpoint: mean survival time, dose: 25.0 mg/kg/injection, schedule: Q01DX005 (ip), vehicle: water 91 % of control | endpoint: mean survival time, dose: 50.0 mg/kg/injection, schedule: Q01DX005 (ip), vehicle: water 92 % of control | endpoint: mean survival time, dose: 100.0 mg/kg/injection, schedule: Q01DX005 (ip), vehicle: water 89 % of control | endpoint: mean survival time, dose: 200.0 mg/kg/injection, schedule: Q01DX005 (ip), vehicle: other 96 % of control | endpoint: mean survival time, dose: 400.0 mg/kg/injection, schedule: Q01DX005 (ip), vehicle: other 96 % of control

COc1c2c(cc3c1C(O)N(C)CC3)OCO2 (configuration not stated)
inactive: [16] 100 % of control | [17] 110 % of control

O=C(NC1CCC(CC2CCCCC2)CC1)C(Cl)Cl (configuration not stated)
inactive: [18] 101 % of control | endpoint: mean survival time, dose: 200.0 mg/kg/injection, schedule: Q04DX002 (ip), vehicle: saline with Tween-80 101 % of control | [19] 89 % of control

CCCCCCCC(=O)N1C=CN(C(=O)CCCCCCC)C1
inactive: endpoint: mean survival time, dose: 75.0 mg/kg/injection, schedule: Q04DX003 (ip), vehicle: saline 104 % of control | endpoint: mean survival time, dose: 150.0 mg/kg/injection, schedule: Q04DX003 (ip), vehicle: saline 98 % of control | endpoint: mean survival time, dose: 300.0 mg/kg/injection, schedule: Q04DX003 (ip), vehicle: saline 98 % of control

O=S(=O)(OCCOC(c1ccccc1)(c1ccccc1)c1ccccc1)c1ccc(Br)cc1
inactive: [2] 94 % of control | [4] 90 % of control | [6] 98 % of control

COc1ccc(OC)c(C2=CCCCCC2)c1
inactive: [2] 101 % of control | [4] 102 % of control | [6] 90 % of control

Cc1c(C=[N+]2CCCCC2)c2ccccc2n1C
inactive: [10] 95 % of control | [11] 95 % of control | [12] 93 % of control | [1] 87 % of control | [18] 100 % of control | [19] 112 % of control

O=C(O)/C=C/C(=O)c1ccccc1
inactive: [13] 104 % of control | [14] 98 % of control

O=[N+]([O-])c1ccccc1-c1ccc(Cl)cc1
inactive: [7] 88 % of control | [8] 91 % of control | [9] 92 % of control
